Experimental findings from PMC10757017 (Heliyon, 2023) are described below.

The structures appear in SMILES notation.

What is called IC50 is the midpoint of a concentration-inhibition curve. Low readings indicate higher potency, high ones lower potency. In general, Ki refers to a measure of affinity in units of concentration, obtained from inhibition or displacement. Low values mean a stronger hold on the target, high ones a looser hold on the target.

For test [1], the target named is T1, α-glucosidase (Saccharomyces cerevisiae, UniProt P53341). As to the kind of experiment: α-Glucosidase inhibitory assay. In kind it is biochemical.
Test [2] deals with T1, α-glucosidase. In words: Kinetic studies. In kind it is biochemical. The following applies: for type of inhibition: Lineweaver-Burk plots, Km increases, Vmax constant.

T1 sequence (P53341 whole entry): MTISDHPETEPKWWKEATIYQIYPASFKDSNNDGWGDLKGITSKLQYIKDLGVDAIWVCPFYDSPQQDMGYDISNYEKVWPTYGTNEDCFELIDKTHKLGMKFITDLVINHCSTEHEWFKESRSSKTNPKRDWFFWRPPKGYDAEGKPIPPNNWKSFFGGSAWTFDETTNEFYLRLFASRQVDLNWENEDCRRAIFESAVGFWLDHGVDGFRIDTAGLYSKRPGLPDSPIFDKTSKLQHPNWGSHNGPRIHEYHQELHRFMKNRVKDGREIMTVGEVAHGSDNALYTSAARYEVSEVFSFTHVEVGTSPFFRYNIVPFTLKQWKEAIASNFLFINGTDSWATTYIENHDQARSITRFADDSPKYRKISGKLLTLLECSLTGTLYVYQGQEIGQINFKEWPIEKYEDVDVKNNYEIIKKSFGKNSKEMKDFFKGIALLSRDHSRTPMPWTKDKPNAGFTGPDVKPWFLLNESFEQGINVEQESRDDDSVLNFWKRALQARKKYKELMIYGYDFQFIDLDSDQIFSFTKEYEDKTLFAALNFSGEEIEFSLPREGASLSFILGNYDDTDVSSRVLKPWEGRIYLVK

At α-glucosidase [1], `CN(C)c1ccc(C(=NN=Cc2ccc(O)cc2O)c2ccc(N(C)C)cc2)cc1` [Compound 2, 4-{[bis-(4-dimethylamino-phenyl)-methylene]-hydrazonomethyl}-benzene-1,3-diol] gave an IC50 of 680 ± 290 nM.

Molecule `CN(C)c1ccc(C(=NN=Cc2cccc(O)c2O)c2ccc(N(C)C)cc2)cc1` [Compound 4, 3-{[bis-(4-dimethylamino-phenyl)-methylene]-hydrazonomethyl}-benzene-1,2-diol] yielded an IC50 at α-glucosidase [1] of 330 nM.

`CN(C)c1ccc(C(=NN=Cc2cc([N+](=O)[O-])ccc2O)c2ccc(N(C)C)cc2)cc1` [Compound 8, 2-{[bis-(4-dimethylamino-phenyl)-methylene]-hydrazonomethyl}-4-nitro-phenol]: at α-glucosidase [2], the affinity corresponds to a Ki of 2790 ± 11 nM and the type of inhibition entry is reported as “competitive”. This molecule also returned an IC50 against α-glucosidase [1] of 280 nM.

Take `COc1cccc(C=NN=C(c2ccc(N(C)C)cc2)c2ccc(N(C)C)cc2)c1O` [Compound 9, 2-{[bis-(4-dimethylamino-phenyl)-methylene]-hydrazonomethyl}-6-methoxy-phenol]: on α-glucosidase [2], affinity was put at a Ki of 3640 ± 12 nM and the type of inhibition entry was “competitive”. Besides, half-maximal inhibition against α-glucosidase [1] (IC50) required 280 nM.

On to `CN(C)c1ccc(C(=NN=Cc2cccc(C=O)c2)c2ccc(N(C)C)cc2)cc1` [Compound 15, 3-{[bis-(4-dimethylamino-phenyl)-methylene]-hydrazonomethyl}-benzaldehyde], for which the IC50 against α-glucosidase [1] stood at 490 ± 1430 nM.

Take `CN(C)c1ccc(C(=NN=Cc2ccc(O)c(O)c2)c2ccc(N(C)C)cc2)cc1` [Compound 17, 4-{[bis-(4-dimethylamino-phenyl)-methylene]-hydrazonomethyl}-benzene-1,2-diol]: the IC50 against α-glucosidase [1] turned out to be 350 nM. That is a sub-micromolar value.

In turn, `CN(C)c1ccc(C(=NN=Cc2ccc(O)cc2)c2ccc(N(C)C)cc2)cc1` [Compound 26, 4-{[bis-(4-dimethylamino-phenyl)-methylene]-hydrazonomethyl}-phenol] had an IC50 at α-glucosidase [1] of 820 ± 1120 nM.
